Measured values published in publication PMC5078989, “Targeted inhibition of the COP9 signalosome for treatment of cancer” (Nature Communications, 2016).

How the values were obtained:
HCT116 cells = experiment: Immunoblotting of cullins, CRL components and substrates in HCT116 cells; type: cell-based, human
Procedure: Figure 2 CSN5 inhibition results in the inactivation of a subset of CRLs and the stabilization of their substrates. Effect on CRL components and substrates after treatment of HCT116 cells with either 1 μM MLN4924 or 1 μM CSN5i-3. (a) Immunoblottings for Cul1 and its CRL components Rbx and Skp1; (b) for cullins Cul2, Cul3 and Cul4A; (c) for F-box protein Skp2 and the SCF^Skp2 substrates p21 and p27; (d) for F-box proteins Fbxo22 and Fbxo30; (e) for F-box protein βTrCP and the SCF^βTrCP substrates Wee1 and pIκBα; (f) for the adaptor KEAP1 and the Cul3^KEAP1 substrate Nrf2; (g) for F-box proteins Fbxw7 and Fbxo3.
Cells were maintained in a humidified incubator at 37 °C and 5% CO2. HCT116 cells (ATCC #CCL-247) were grown in McCoy's 5A medium (GIBCO #16600–082) supplemented with 10% fetal bovine serum (FBS), TE-1 (RIKEN BioResource Center, #RCB1894), NCI-H2030 (ATCC #CRL-591), SU-DHL-1 (DMSZ #ACC 356), NOMO-1 (HSRRB #IFO50474) and NCIH196 cells (ATCC, #CRL-5823) in RPMI-1640 medium (GIBCO#61870–010) supplemented with 10% FBS, 10 mM HEPES, 1 mM sodium pyruvate and THP-1 cells (ATCC #TIB-202) with additional 0.05 mM 2-mercaptoethanol. DMS273 cells (ECACC #950628) were cultured in Waymouth's MB 752/1 medium (GIBCO#11220–035) supplemented with 10% FBS. All cells were negatively tested for mycoplasma contamination either by the vendor or in house. For treatment with compounds, sub-confluent cells were either treated with inhibitors at the indicated concentrations or mock treated with an equivalent amount of DMSO (final content 0.1%). If not stated otherwise, cells were harvested after incubation for 16 h and subjected to SDS–PAGE and western blotting. The RNA interference experiment was performed with CSN5 stealth siRNA (#HSS116986) and stealth negative control siRNA (#12935–400) (Invitrogen), which were transfected at 10 nM into HCT116 cells using HiperFect (Qiagen) according to the manufacturer's protocols. Seventy-two hours after transfection, cells were harvested and subjected to SDS–PAGE and western blotting (see Supplementary Fig. 7 for all western blottings performed).
For further analysis, cell lysates were prepared by direct lysis with 2 × Sample buffer (65.8 mM Tris-HCl, pH 6.8, 2.1% SDS, 26.3% glycerol, 0.01% bromophenol blue and 20 mM DTT). Protein lysates from tumour powder were prepared in RIPA buffer (50 mM Tris-HCl pH 8.0, 150 mM NaCl, 1% Triton X-100, 2 mM EDTA, 0.5% sodium deoxycholate and 0.1% SDS) supplemented with 10 mM N-ethylmaleimide, protease inhibitor and phosphatase inhibitor cocktails (Roche Diagnostics). Cells from longer compound incubations were also lysed in RIPA buffer, which allows the protein concentration to be determined by BCA Protein Assay Kit (Pierce). Proteins were separated by SDS–PAGE using 4–20% Tris-Glycine Gels (Invitrogen) and subsequently transferred to polyvinylidene difluoride membranes using a Trans-Blot Turbo System (BioRad). […] Horseradish peroxidase-conjugated secondary antibodies (1:3,000) were purchased from Promega AG and bound antibody was detected by enhanced chemiluminescence (Pierce).

THP-1 cells = experiment: Cell viability assay (CellTiter-Glo), THP-1; type: cell-based, human; conditions: THP-1, 72 h; cytotoxic
Procedure: Cells were maintained in a humidified incubator at 37 °C and 5% CO2. […] All cells were negatively tested for mycoplasma contamination either by the vendor or in house. […] If not stated otherwise, cells were harvested after incubation for 16 h and subjected to SDS-PAGE and western blotting. The RNA interference experiment was performed with CSN5 stealth siRNA (#HSS116986) and stealth negative control siRNA (#12935-400) (Invitrogen), which were transfected at 10 nM into HCT116 cells using […] (Qiagen) according to the manufacturer's protocols. Seventy-two hours after transfection, cells were harvested and subjected to SDS-PAGE and western blotting (see Supplementary Fig. 7 for all western blottings performed). A standardized CellTiter-Glo Assay (Promega #G7570) based on the quantification of ATP was applied according to the manufacturer's protocol to measure the amount of viable cells in culture. In brief, cells were seeded into 384-well plates at optimal density for each cell line. After 4 h, compounds were added at different concentrations in growth medium and incubated for another 72 h in a humidifying chamber at 37 °C and 5% CO2. Eventually, equal amounts of CellTiter-Glo reagent were added directly to the cells, incubated for 15 min and luminescence was recorded using PHERAstar plate reader (BMG LABTECH GmbH).

SMILES: CC(C)n1nc(C(F)F)cc1C(=O)Nc1ccc([C@H]2[C@@H](O)CCCc3cncn32)c(-c2ccccc2)c1 [CSN5i-3, 3-(Difluoromethyl)-N-(6-((5S,6S)-6-hydroxy-6,7,8,9-tetrahydro-5H-imidazo[1,5-a]azepin-5-yl)-[1,1′-biphenyl]-3-yl)-1-isopropyl-1H-pyrazole-5-carboxamide]
- degradation of Wee1, pIκB and Nrf2 (HCT116 cells; HCT116, 1 μM): did not affect their degradation
- levels of SRMs Skp2, Fbxo22 and Fbxo30 (HCT116 cells; HCT116, 1 μM): degradation
- levels of βTrCP, KEAP1, Fbxo3 and Fbxw7 (HCT116 cells; HCT116, 1 μM): remained stable
- cullin-1 (Cul1) deneddylation in HCT116 cells (HCT116 cells; qualitative western blot analysis): accumulation of neddylated Cul1
- AMAX (THP-1 cells): ≤ −95%
